The values below come from article PMC10367067, “A Series of Non-Oxido V^IV Complexes of Dibasic ONS Donor Ligands: Solution Stability, Chemical Transformations, Protein Interactions, and Antiproliferative Activity” (Inorganic Chemistry, 2023).

For data set [1], the system named is HT-29 (colon cancer) cells. Further details: method as in PMID 36598160, doi:10.1002/aoc.6082. To be noted: identical experimental conditions; cited from earlier work.
Data set [2] has as its system HeLa (cervical cancer) cells. Also noted: method as in PMID 36598160, doi:10.1002/aoc.6082. The note with it: identical experimental conditions; cited from earlier work.
For data set [3], the system named is HT-29 (colon cancer) cells. The data set is described as follows: MTT assay, HT-29 cells. The class given is cell-based. The note with it: for IC50: 48 h of exposure, mean ± SD; for selectivity index (SI), HT-29: NIH-3T3 vs HT-29, 48 h. On the procedure:
(§1) HT-29 (colon cancer), HeLa (cervical cancer), and NIH-3T3 (mouse embryonic fibroblasts) cells were maintained in DMEM supplemented with 10% FBS, penicillin–streptomycin solution in a humidified (95% humidity) CO2 incubator (5% CO2). Thereafter, cells were harvested from the logarithmic phase and seeded into a 96-well plate at a concentration of 8 × 10^4 cells per well. After overnight seeding, cells were treated with different concentrations (2.5, 5, 10, 20, and 50 μM) of the tested ligands and vanadium complexes (H2L^1–4 and 1–4) for 48 h. The compounds’ stock solutions were prepared in DMSO. DMEM was used to prepare the final working concentration of the compounds, so that the final amount of DMSO is less than 2%. The effect of the complexes on the viability of the cells was evaluated through MTT dye reduction assay by measuring the optical density at 595 nm.[93] DMSO alone, used to dissolve the complexes, was also employed for the control group treatment.

A short description of a further data set: Solubility observations. The class given is physicochemical. From the text:
The non-oxido vanadium(IV) complexes (1–4) were synthesized by the reaction of tridentate dibasic ONS donor dithiocarbazates H2L^1–4 with [V^IVO(acac)2] in a 2:1 molar ratio in CH3CN medium (Scheme 1). […] They are soluble in polar aprotic solvents like DMSO, DMF, DCM, THF, and CH3CN and are partially soluble in aqueous media. The solid-state characterization of all compounds was done through elemental analysis, FTIR, and also with single-crystal X-ray diffraction studies of 1–3, while the solution phase characterization was carried out through UV–vis, ESI-MS spectrometry, and EPR spectroscopy. Details of all the characterizations are described in the following sections.
(§2) EPR spectra were recorded 24 h after the dissolution of the most soluble compound, [V^IV(L^1)2] (1), in DMSO and in an aqueous solution in phosphate buffer at pH 7.4 (Figure 8). […] The spectrum in DMSO is very similar to that in CH2Cl2 (cfr. traces in Figures 6 and 8), with the coexistence of fac (1a) and mer (1b) isomers.

The target of the next data set is T1, BSA (Bos taurus, UniProt P02769).
T1 construct: purchased Sigma-Aldrich
Briefly: Fluorescence quenching titration of BSA with the complexes. The class given is binding, bovine. The note with it: room temperature. The procedure:
The interaction between complexes 1–4 and BSA was studied using fluorescence quenching spectroscopy on a PerkinElmer LS 55 instrument. The instrumental response was corrected by means of a correction function provided by the manufacturer. The fluorescence experiments were carried out at room temperature and are steady-state measurements. Electronic absorption spectra were measured on a PerkinElmer Lambda35.
Fatty acid free BSA stock solution was prepared in PBS buffer (10 mM, pH 7.4), and the concentration was determined spectrophotometrically considering the extinction coefficient 44,309 M^–1 cm^–1 at 280 nm.[107] Stock solutions of the complexes (ca. 8 × 10^–4 M) were prepared in DMSO and further diluted (1:10) immediately before running the experiments. […] Fluorescence emission spectra were measured at room temperature with λex = 295 nm between 310 and 500 nm. Fluorescence spectra containing the same amount of complex but no BSA were recorded and subtracted from each corresponding emission spectrum of the mixtures. […] UV–vis spectra were measured for each solution, and the absorbance at excitation and emission wavelengths were used to make corrections for inner filter effects and reabsorption.[108],[109]
The Stern–Volmer equation was used to fit the fluorescence quenching data[109] […]

The nature of data set [4]: Solution stability (ESI-MS, EPR). The class given is physicochemical. The procedure:
The stability of all complexes was established in water containing solvents through UV–vis, ESI mass spectrometry, and NMR and EPR spectroscopy.
The aged solutions in MeOH/H2O 90/10 (v/v) were diluted in CH3CN and analyzed by ESI-MS (concentration 50 μM). For all complexes, the most important species remained those detected at t = 0 h, i.e., the non-oxido V^IV complexes [V^IV(L^1–4)2]; the V^V species [V^V(L^1–4)2]^+, derived from the oxidation of the previous one, and [V^VO2(L^1–4)]^− were also detected. At these experimental conditions, the non-oxido V^IV complexes seem to be stable after 24 h with a slight increase in the oxidation process, as indicated by the increment of the relative amount of […] (Figure S14). […] This was considered during the docking studies.
as §2

Data set [5] has as its system NIH-3T3 (mouse embryonic fibroblasts) cells. Briefly: MTT assay, NIH-3T3 normal cells. The class given is cell-based. The note with it: 48 h of exposure, mean ± SD. The procedure:
as §1

The test system of the next data set is HT-29 cells. Briefly: Annexin V-FITC/PI apoptosis assay by flow cytometry. The class given is cell-based. To be noted: 48 h, control 9%. On the procedure: The apoptotic population induced by complexes 1 and 2 in HT-29 cells was evaluated using Annexin V-FITC Apoptosis Detection Kit (Abgenex) by a flow cytometer (BD Accuri C6 flow cytometer; BectoneDickinson).[125] HT-29 cells (3 × 10^5 cells/well) were cultured in a 6-well plate for 24 h. After the cells were adhered, different concentrations (5 and 10 μM) of the tested complexes were treated and incubated for further 48 h. Subsequently, the cells were collected by trypsinization and then suspended in 1X binding buffer. Finally, the suspension was stained with 5 μL of Annexin V and PI at room temperature and incubated for 15 min in the dark. Then, the samples were immediately analyzed under a BD Accuri C6 flow cytometer.

Data set [6] has as its system HeLa (cervical cancer) cells. Briefly: MTT assay, HeLa cells. To be noted: for IC50: 48 h of exposure, mean ± SD; for selectivity index (SI), HeLa: NIH-3T3 vs HeLa, 48 h. The class given is cell-based. On the procedure: as §1

Structures are written as SMILES. Where two headings read alike, the source gives them in different places.

T1 sequence (P02769 25-607): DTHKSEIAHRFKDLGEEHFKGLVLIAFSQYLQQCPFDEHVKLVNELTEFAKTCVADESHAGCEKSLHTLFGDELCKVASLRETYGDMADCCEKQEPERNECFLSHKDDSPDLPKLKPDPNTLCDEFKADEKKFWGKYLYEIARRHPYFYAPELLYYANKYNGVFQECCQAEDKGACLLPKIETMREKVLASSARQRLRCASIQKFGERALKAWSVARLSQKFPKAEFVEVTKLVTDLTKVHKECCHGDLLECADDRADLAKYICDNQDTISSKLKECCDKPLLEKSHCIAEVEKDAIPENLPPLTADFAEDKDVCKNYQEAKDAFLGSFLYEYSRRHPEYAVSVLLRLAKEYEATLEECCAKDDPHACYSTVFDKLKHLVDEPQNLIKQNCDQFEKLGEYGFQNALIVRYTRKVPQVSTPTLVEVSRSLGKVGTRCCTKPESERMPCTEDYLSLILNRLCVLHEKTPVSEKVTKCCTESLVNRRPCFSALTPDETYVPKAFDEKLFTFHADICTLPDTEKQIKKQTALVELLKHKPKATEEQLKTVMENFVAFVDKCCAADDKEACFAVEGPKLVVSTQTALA

Consider `N.N.[Cl][Pt][Cl]` [cisplatin], for which the IC50 is 32.7 ± 0.6 µM in [1] and 25.5 ± 0.8 µM in data set [2].

On to `CCN(CC)c1ccc2c(c1)[O][V]1([O]c3cc(N(CC)CC)ccc3C=NN=C(SC)[S]1)[S]C(SC)=NN=C2` (centres unmarked) [complex 1, [V^IV(L^1)2]], for which the IC50 in data set [3] was 7.2 ± 0.6 µM; in [5], 8.7 ± 1.1 µM; in data set [6] it was 9.3 ± 0.2 µM. Also, in [3], the “selectivity index (SI), HT-29” value is given as 1.2. For the same compound, the “behaviour in minimum essential medium (MEM, no FBS)” value in the data set “Solubility observations” (MEM instead of water) is on record as “precipitation was evident from the beginning”. Moreover, in the data set “Solubility observations” (pH 7.4), the “solubility in phosphate buffer” value was “not completely soluble”. For the same compound, the “n (equivalent binding sites of BSA)” value on BSA (PBS pH 7.4) was determined as 0.89. For the same compound, the “KBC (binding constant)” value at BSA (PBS pH 7.4, from double logarithm plot) was 2.6 × 10^4. Also, in [4] (DMSO, after 24 h), the “stability by EPR in DMSO” value is on record as “the pattern remains substantially unaltered, even though a significant decrease in the spectral intensity is detected”. In addition, the “stability by EPR in aqueous solution” value in [4] (phosphate buffer pH 7.4, after 24 h) was “the resonances of [V^IV(L^1)2] are clearly visible”. Besides, the “apoptotic cells (sum of early and late apoptosis)” value with HT-29 cells (5 μM) was found to be 15.8%; in the data set on HT-29 cells (10 μM), 48.8%. The “selectivity index (SI), HeLa” value in [6] is 0.9.

`CCN(CC)c1ccc(/C=N/NC(=S)SC)c(O)c1` [H2L^1]: the half-maximal inhibitory concentration (IC50) in data set [3] (Homo sapiens, HT-29) was determined as 14.7 ± 0.6 µM; in [5] (Mus musculus, NIH3T3), 23.5 ± 0.6 µM; in data set [6] (Homo sapiens, HeLa), 15.7 ± 1.9 µM. The “selectivity index (SI), HT-29” value in [3] amounted to 1.6. The “selectivity index (SI), HeLa” value in [6] stood at 1.5.
